Reference: patent publication EP4740932A2, “COSMETIC COMPOSITION FOR SKIN IMPROVEMENT AND PHARMACEUTICAL COMPOSITION FOR PREVENTING OR TREATING SKIN DAMAGE, EACH CONTAINING HONOKIOL AND POLYOL” (Cosmax, Inc., priority 2023, dated 2025)

Columns and labels:
HaCaT cells = assay: MTT cytotoxicity evaluation on skin keratinocytes; format: cell-based; details: HaCaT (skin stratum corneum cells), 0.1, 0.5, 1 and 5 ppm, 24 hours, at concentrations of 5 ppm or less
Experimental: (§1) Toxicity assessments of honokiol on skin epidermis and dermal cells were performed. Specifically, HaCaT cells, which are skin keratinocytes, and Hs68 cells, which are skin dermis cells, were cultured in a 96 well plate at a concentration of 2 X […] and cultured in a medium including FBS ([…]) and antibiotics (Antibiotic antibiotic) at 37°C and 5% CO2 for 24 hours, and then further cultured by treating the medium including only antibiotics with 0.1, 0.5, 1, and 5 ppm for each concentration on the next day. After 24 hours, the toxic concentration of the honokiol material on skin cells was determined by replacing it with medium containing MTT tetrazolum (Sigma-aldrich, St. Lous, USA) and by reacting at 37°C for 4 hours to evaluate the cellular metabolic activity.

Hs68 cells = assay: MTT cytotoxicity evaluation on skin dermis cells; format: cell-based; details: Hs68 (skin dermis cells), 0.1, 0.5, 1 and 5 ppm, 24 hours, at concentrations of 5 ppm or less
Experimental: as §1

COL1A1 = assay: qRT-PCR of collagen production promotion factor in UVB-irradiated Hs68 cells; format: cell-based; details: Hs68, UVB 25 mJ/cm^2, 1 ppm, 24 hours; relative to UVB non-irradiated group; compared with RA, EGCG, retinol
MMP-1 = assay: qRT-PCR of collagen degradation enzyme factor in UVB-irradiated Hs68 cells; format: cell-based; details: Hs68, UVB 25 mJ/cm^2, 1 ppm, 24 hours; relative to UVB non-irradiated group
Experimental: It was determined whether honokiol increases the amount of skin collagen. Specifically, Hs68 cells, which are skin dermal layer cells, were irradiated with 25 mJ/cm^2 intensity of UVB (ultraviolet B), and then treated with RA (retinoic acid), EGCG (epigallocatechin gallate), retinol, and honokiol at a concentration of 1 ppm for 24 hours, respectively.
The mRNA expression of the collagen production promotion factor COL1A1 and the collagen degradation enzyme factor MMP-1 gene was measured through qRT-PCR analysis and converted based on the actin expression, and the relative values for the expression of the UVB non-irradiated group were calculated and compared.
The collagen production amount was compared in the same manner as in Example 2-1, and the treatment sample was changed to a honokiol solution dissolved in RA (retinoic acid), retinol, DMSO (dimethyl sulfoxide), a honokiol solution dissolved in BG, and a honokiol solution dissolved in PG (propylene glycol).
In Example 2-1, a 5% (w/w) solution was prepared as a sample to confirm stability in a high concentration dissolved state, whereas a honokiol solution for treating cells was prepared at a concentration of 1 mg/ml, and the honokiol alone component treated in cells was performed to be 1 ppm.

ELN1 = assay: qRT-PCR of elastin production factor in UVB-irradiated Hs68 cells; format: cell-based; details: Hs68, UVB 25 mJ/cm^2, 1 ppm, 24 hours; compared with RA, EGCG, retinol
Experimental: (§2) Specifically, Hs68 cells, which are skin dermal layer cells, were irradiated with UVB (ultraviolet-B) having a 25 mJ/cm^2 intensity, and then treated with RA, EGCG, retinol, and honokiol, 1 ppm each, for 24 hours.
(§3) The mRNA expression levels of ELN1, a factor associated with elastin production promotion, and FBN, a factor associated with fibronectin production promotion, were then measured using qRT-PCR analysis, and the levels of actin expression from the UVB non-irradiated group were converted and compared.

FBN = assay: qRT-PCR of fibronectin production factor in UVB-irradiated Hs68 cells; format: cell-based; details: Hs68, UVB 25 mJ/cm^2, 1 ppm, 24 hours; compared with RA, EGCG, retinol
Experimental: as §2, §3

AQP3 = assay: qRT-PCR of moisture migration factor in HaCaT cells; format: cell-based; details: 24 hours
Experimental: (§4) Specifically, HaCaT cells, which are skin stratum corneum cells, were treated with retinol and honokiol at 0.1 and 1 ppm, respectively, for 24 hours.
(§5) The mRNA expression levels of the AQP3 gene, which is a factor related to the migration of moisture present in the dermis, and the HAS3 gene, which is a factor related to hyaluronic acid synthase, were then measured through qRT-PCR analysis, and the β-actin expression levels were converted and compared.

HAS3 = assay: qRT-PCR of hyaluronic acid synthase factor in HaCaT cells; format: cell-based; details: 24 hours
Experimental: as §4, §5

filaggrin (FLG) = assay: qRT-PCR of filaggrin in HaCaT cells; format: cell-based; details: 24 hours
Experimental: as §4
(§6) Subsequently, through qRT-PCR analysis, the mRNA expression of filaggrin (FLG), a moisturizing component-related factor present in keratinocytes constituting the skin barrier, and the CLDN1 gene, a factor related to the binding of the skin barrier, were measured and compared based on the β-actin expression level.

CLDN1 = assay: qRT-PCR of skin barrier binding factor in HaCaT cells; format: cell-based; details: 1 ppm, 24 hours, versus control group
Experimental: as §4, §6

TSLP = assay: qRT-PCR of inflammation-related factor in Poly I:C/IL-4 stimulated HaCaT cells; format: cell-based; details: 10 µg/ml Poly I:C and 10 µg/ml IL-4, 1 ppm, 4 hours
Experimental: Specifically, HaCaT cells, which are skin stratum corneum cells, were treated (+) with 10 µg/ml of Poly I:C and 10 µg/ml of IL-4 protein, which are inflammatory response inducing substances, and prepared as an experimental group in which 1 µM (Dexa) of dexamethasone (DEXA), retinol, and honokiol, which are […], were treated for 4 hours at 0.1 and 1 ppm, respectively. The untreated group (-) was prepared as a negative control.
Afterwards, the expression level of the TSLP gene, an inflammation-related factor expressed in skin keratinocytes, was measured through qRT-PCR analysis, converted based on the expression level of ectin, and compared.

[1] = DPPH test of antioxidant activity; format: biochemical; details: 10 and 100 ppm, room temperature, 30 minutes; compared to retinol
Experimental: It was confirmed by the DPPH test whether honokiol exerts antioxidant activity.
Specifically, the DPPH solution was treated with Ascorbic Acid (AA), retinol, and honokiol at 10 and 100 ppm, respectively, at room temperature for 30 minutes. The absorbance was measured at 517 nm to show antioxidant activity as the ratio of the decrease in absorbance to the control. At this time, ascorbic acid, an antioxidant, was used as a control group for determining the absorbance reduction ratio.

[2] = Solvent selection: dissolving 5 wt % honokiol in water, BG, MCT; format: physicochemical
Excerpt: Honokiol is a poorly soluble component and has low solubility in water, so it has the property of being dissolved in an organic solvent. To stabilize the cosmetic composition including honokiol at a high concentration of 5 wt %, three types of solvents corresponding to water, Butylene Glycol (BG), and medium-chain triglyceride (MCT) oil were applied to confirm the result.

[3] = HPLC potency analysis after storage; format: physicochemical; details: harsh environments of low temperature, high temperature, and cycle
Experimental: Honokiol was dissolved in BG and MCT at a concentration of 5 wt %, and high-performance liquid chromatography (HPLC) was performed to observe whether precipitates were formed at 4°C, 25°C, 45°C, 50°C, and sunlight, and to analyze potency.

[4] = 0.1 and 1 ppm, overall versus retinol

solubility ([2]; 5 wt % honokiol in BG): well soluble
solubility ([2]; 5 wt % honokiol in MCT): well soluble
solubility ([2]; 5 wt % honokiol in water): low
potency maintenance (stability of the material) [3]: maintained its potency well
SMILES: C=CCc1ccc(O)c(-c2ccc(O)c(CC=C)c2)c1 [honokiol]
cytotoxicity (HaCaT cells): did not cause cytotoxicity
cytotoxicity (Hs68 cells): did not cause cytotoxicity
COL1A1 mRNA expression (collagen production) (COL1A1): higher collagen production than the UVB-only irradiated group, and showed the highest collagen production among all UVB irradiated groups
MMP-1 mRNA expression (collagen degrading enzyme production) (MMP-1): lower amount of collagen degrading enzyme production than the UVB-only irradiation group
ELN1 mRNA expression level (ELN1): highest expression level among the UV-irradiated groups but also showed a higher expression level than the UV-unirradiated group
FBN mRNA expression level (FBN): highest expression level among the UV-irradiated groups but also showed a higher expression level than the UV-unirradiated group
AQP3 mRNA expression level (AQP3; [4]): higher overall expression than the retinol-treated group
AQP3 mRNA expression level (AQP3; 1 ppm): significantly increased the expression of related genes
HAS3 mRNA expression level (HAS3; [4]): higher overall expression than the retinol-treated group
HAS3 mRNA expression level (HAS3; 1 ppm): significantly increased the expression of related genes
FLG mRNA expression (filaggrin (FLG); [4]): higher expression than the retinol-treated group overall
FLG mRNA expression (filaggrin (FLG); 1 ppm): significantly increased the expression of the FLG gene
CLDN1 mRNA expression level (CLDN1): significantly increased the expression level of the CLDN1 gene compared to that of the control group
TSLP gene expression amount (TSLP): significantly reducing the expression amount of the TSLP gene
antioxidant activity (DPPH, decrease in absorbance at 517 nm) [1]: remarkably high antioxidant activity compared to retinol
